Data as given in US10259815B2, “Gabaergic ligands and their uses” (UWM Research Foundation, Inc., priority 2015, dated 2019).
Entries after “also recorded” stand apart in the source; their conditions may differ.

Assays:
[1] = Liver microsomal stability, mouse; format: in vitro ADME; settings: for Mouse Liver microsome stability (reported in % remaining): 37° C., 4 μM compound, 30 minutes
Procedure: In vitro metabolism studies were done in mouse, rat, human, and dogs cells (TABLE 2).
In vitro liver microsomal studies were completed to measure the stability of the compounds against degradation in various species' liver microsomes.
Compound was incubated in hepatic microsomes over a 30-minute incubation period at 37° C. Incubations both with and without NADPH (2 mM) were performed in a 96-well plate format. The reaction was initiated with the addition of substrate and was terminated by protein precipitation. All incubations were performed using a final substrate concentration of 4 μM in 50 mM sodium phosphate buffer, pH 7.4. The final organic solvent content was 0.5% acetonitrile and 0.02% DMSO. The amount of enzyme present was fixed at 1.11 mg/mL protein irrespective of the species of microsomes used. Samples were analyzed by LC/MS-MS to determine the percent loss in the NAPDH incubations relative to the NADPH free incubations.

Rats = assay: Food-maintained operant responding (rate response); format: in vivo; settings: three-assay comparison
Procedure: Food-maintained operant responding (rate response). Rats (n=7) were placed in a chamber consisting of two (one active) levers. Rats were trained to press a lever (left) for a food pellet under a multiple-cycle procedure. […] The active period was set on a FR10 schedule and rats could receive a maximum of 5 food pellets. The cue light was terminated either after 5 minutes or once 5 food pellets were delivered. After each active period (every 20 minutes), rats received the next dose of drug for a duration of 2 hours. Data (rate per minute) was collected using Graphic State 3.03 software and interface (Coulbourn Instruments Inc.)
(§1) Drugs. The following drugs were used: HZ166, KRM-II-18B, and KRM-II-81, and were dissolved in a mixture containing 20% Dimethyl sulfoxide (DMSO), 10% Emulphor-620 (Rhodia Inc.), and 70% of 0.9% saline. Flumazenil (purchased from Cayman Chemical Company, MI) was dissolved in a mixture containing 10% ethanol, 40% propylene glycol, and 50% sterile water. Midazolam (Akorn, Inc.) was dissolved in 0.9% saline. Doses were expressed as the weight of the drug in milligrams per kilogram of body weight and drugs were administered intraperitoneally.

Male NIH Swiss mice = assay: Rotorod assay (ataxia); format: in vivo
Procedure: Male NIH Swiss mice (n=10) were dosed i.p. with vehicle (1% carboxymethyl cellulose) or one of the test compounds (10 or 30 mg/kg) 30 minutes prior to being tested on the rotorod. Mice were placed on a rod for two minutes at 4 revolutions per minute. […] Mice that fell twice failed the testing.
The rotorod assay (FIG. 5) is used to determine the ataxic effects, generally stemming from the α1 subtype, that compounds have in test subjects. Mice are trained to run on a slow, rotating cylinder for two minutes, and failure to stay on the rod may be due to ataxia. […] Each set of compounds were tested against a vehicle.
Male NIH Swiss mice (n=10/group) were trained on a rotorod (Ugo Basile 7650) at 4 r.p.m. for two minutes per training session prior to testing. On test day, mice were dosed i.p. with either vehicle (1% carboxymethyl cellulose) or one of the test compounds (10 or 30 mg/kg) 30 minutes prior to testing.

Sprague Dawley male rats = assay: Mechanical hyperalgesia (von Frey) in CFA-induced inflammatory pain rat model; format: in vivo; settings: for mechanical hyperalgesia in CFA-induced inflammatory pain: cumulative i.p. dosing, 3 days after CFA; for selectivity of antihyperalgesic effect in three-assay comparison: versus rate-suppressing and muscle-relaxant activity
Procedure: Raw data (paw withdrawal threshold, expressed in g of von Frey filament) was converted to a maximal possible effect value according the following equation: % MPE=[(test threshold(g)−control threshold(g)/(pre-CFA threshold−control threshold)]×100.
Complete Freund's adjuvant (CFA) contains Mycobacterium butyricum, inducing inflammation and an increase in paw thickness. 0.1 mL of CFA was injected in the right hind paw of Sprague Dawley male rats under isoflurane anaesthesia.
Mechanical hyperalgesia. Mechanical hyperalgesia was measured 3 days after CFA treatment. Rats (n=6) were placed in elevated boxes with a mesh floor. Von Frey filaments (expressed in g) were applied perpendicularly to the hindpaws, starting with the lowest filament (1.4 g) then increased until hindpaw withdrawal was observed. After each measurement, rats received the next dose of drug (every 20 min) until the maximum threshold (26 g) was observed. For the antagonist study, rats were pretreated with the benzodiazepine site antagonist flumazenil (10 min) and then received the next dose of drug (every 20 min) until the pre-CFA threshold was observed.
as §1

Row | Structure (SMILES) | Mouse Liver microsome stability (reported in % remaining) [1] | rate-suppressing activity, doses relative to antihyperalgesic doses (Rats) | rotorod performance at 30 mg/kg (Male NIH Swiss mice; 30 mg/kg i.p., 30 minutes prior, 4 r.p.m., two minutes) | mechanical hyperalgesia in CFA-induced inflammatory pain (Sprague Dawley male rats) | selectivity of antihyperalgesic effect in three-assay comparison (Sprague Dawley male rats) | Mouse % Metabolized ([1]; in vitro metabolism, mouse) | ataxic / sedative effects in rotarod assay (Male NIH Swiss mice; 10 or 30 mg/kg i.p.)
1 | C#Cc1ccc2c(c1)C(c1ccccc1F)=NCc1c(-c3cnco3)ncn1-2 [KRM-II-18B, 5-(8-Ethynyl-6-(2-fluorophenyl)-4H-benzo[f]imidazo[1,5-a][1,4]diazepin-3-yl)oxazole] | 79 % remaining | much larger doses | failed multiple times | much more active against hyperalgesia; also recorded: dose-dependently attenuated mechanical hyperalgesia | selectively produce antihyperalgesic effect |  | 
2 | C#Cc1ccc2c(c1)C(c1ccccn1)=NCc1c(-c3cnco3)ncn1-2 [KRM-II-81, 5-(8-Ethynyl-6-(pyridin-2-yl)-4H-benzo[f]imidazo[1,5-a][1,4]diazepin-3-yl)oxazole] | 90 % remaining | much larger doses |  | much more active against hyperalgesia; also recorded: dose-dependently attenuated mechanical hyperalgesia | selectively produce antihyperalgesic effect | 10.1% | less sedative effects than HZ-166; also recorded: no significant ataxic concerns
